From ChEMBL document CHEMBL1955793, “Integrated structure-based activity prediction model of benzothiadiazines on various genotypes of HCV NS5b polymerase (1a, 1b and 4) and its application in the discovery of new derivatives” (Bioorg Med Chem, 2012)
pEC50, pIC50: −log10 of the molar value. Activity calls are given as the source filed them. The calls are words filed in the database; no cut-off is given here.

Columns and labels:
[1] = system: Hepatitis C virus; assay: Antiviral activity against Hepatitis C virus genotype 1b 1389 infected in human HuH5.2 cells assessed as inhibition of viral replication after 72 hrs by luciferase reporter gene assay; assay type: functional, organism-based, Hepacivirus hominis; conditions: genotype 1b 1389, Huh-5-2, 72 h
[2] = system: Hepatitis C virus genotype 4; assay: Inhibition of Hepatitis C virus genotype 4 NS5B polymerase at 10 uM
[3] = Cytotoxicity against human HuH5.2 cells after 1.5 hrs by MTS assay; assay type: cell-based, Huh-5-2
[4] = system: Hepatitis C virus; assay: Inhibition of Hepatitis C virus genotype 1b NS5B polymerase; parameters: species or system Hepatitis C virus subtype 1b
[5] = Inhibition of Hepatitis C virus genotype 1a NS5B polymerase; parameters: species or system Hepatitis C virus subtype 1a
[6] = system: Hepatitis C virus; assay: Inhibition of Hepatitis C virus genotype 1b 1389 NS5B polymerase; parameters: species or system Hepatitis C virus subtype 1b

SMILES	inhibition [2]	pIC50 [4]	pIC50 [5]	other results
CC(C)CCn1cc(C2=NS(=O)(=O)c3ccccc3N2)c2ccccc21	inactive	–	–	pEC50 [1]: 4.71; CC50 at 1.5 h [3]: > 50 µM
CC(C)CCn1cc(C2=NS(=O)(=O)c3cc(NS(C)(=O)=O)ccc3N2)c2ccccc21	60%	–	–	pIC50 [6]: 5.92
CC(C)(C)CCNn1c(=O)c(C2=NS(=O)(=O)c3ccccc3N2)c(O)c2ccccc21	–	6.87	6.39	–
CCCCNn1c(=O)c(C2=NS(=O)(=O)c3ccccc3N2)c(O)c2ccccc21	–	6.79	6.02	–
CCCC(CC)Nn1c(=O)c(C2=NS(=O)(=O)c3ccccc3N2)c(O)c2ccccc21 (centres undefined)	–	6.41	5.72	–
CC(C)CNn1c(=O)c(C2=NS(=O)(=O)c3ccccc3N2)c(O)c2ccccc21	–	7.00	6.03	–
CCCCn1cc(C2=NS(=O)(=O)c3cc(Br)cnc3N2)c2ccccc21	inactive	–	–	pEC50 [1]: 5.23; CC50 at 1.5 h [3]: 21.9 µM
CC(C)CCn1cc(C2=NS(=O)(=O)c3ccccc3N2)c2cc(Br)ccc21	inactive	–	–	pEC50 [1]: 4.74; CC50 at 1.5 h [3]: > 50 µM
CCCC(Nn1c(=O)c(C2=NS(=O)(=O)c3ccccc3N2)c(O)c2ccccc21)C(C)C (centres undefined)	–	5.95	5.19	–
CC(C)n1cc(C2=NS(=O)(=O)c3ccccc3N2)c2ccccc21	inactive	–	–	–
CC(C)n1cc(C2=NS(=O)(=O)c3cc(Br)cnc3N2)c2ccccc21	inactive	–	–	–
O=c1c(C2=NS(=O)(=O)c3ccccc3N2)c(O)c2ccccc2n1NC1CCCCC1	–	7.22	6.45	–
CC(C)Nn1c(=O)c(C2=NS(=O)(=O)c3ccccc3N2)c(O)c2ccccc21	–	6.19	5.20	–
O=c1c(C2=NS(=O)(=O)c3ccccc3N2)c(O)c2ccccc2n1NCc1ccc(Cl)s1	–	5.84	5.32	–
O=c1c(C2=NS(=O)(=O)c3ccccc3N2)c(O)c2ccccc2n1NCC1CC1	–	6.84	6.55	–
CCCn1cc(C2=NS(=O)(=O)c3cc(I)ccc3N2)c2ccccc21	inactive	–	–	–
CC(C)CCn1cc(C2=NS(=O)(=O)c3cc(Br)cnc3N2)c2ccccc21	inactive	–	–	pEC50 [1]: 5.15; CC50 at 1.5 h [3]: > 50 µM
CCCCn1cc(C2=NS(=O)(=O)c3ccccc3N2)c2cc(Br)ccc21	inactive	–	–	pEC50 [1]: 5.00; CC50 at 1.5 h [3]: 37.2 µM

SMILES	inhibition [2]	pIC50 [4]	pIC50 [5]	other results
CCCCCNn1c(=O)c(C2=NS(=O)(=O)c3ccccc3N2)c(O)c2ccccc21	–	7.00	6.03	–
C=CCn1cc(C2=NS(=O)(=O)c3cc(Br)cnc3N2)c2ccccc21	inactive	–	–	pEC50 [1]: 4.60; CC50 at 1.5 h [3]: > 50 µM
Cc1ccsc1CNn1c(=O)c(C2=NS(=O)(=O)c3ccccc3N2)c(O)c2ccccc21	–	5.92	4.82	–
CCc1cc(CC[C@]2(C3CCCC3)CC(O)=C(Cc3nc4nc(C)cc(C)n4n3)C(=O)O2)cc(CC)n1 [FILIBUVIR]	–	–	–	pEC50 [1]: 7.39
CCCC(CCC)Nn1c(=O)c(C2=NS(=O)(=O)c3ccccc3N2)c(O)c2ccccc21	–	5.74	5.65	–
O=c1c(C2=NS(=O)(=O)c3ccccc3N2)c(O)c2ccccc2n1NC1CCCC1	–	6.82	6.13	–
O=c1c(C2=NS(=O)(=O)c3ccccc3N2)c(O)c2ccccc2n1NC1CCCCCC1	–	6.66	5.98	–
CCCCn1cc(C2=NS(=O)(=O)c3cc(NS(C)(=O)=O)ccc3N2)c2cc(Br)ccc21	60%	–	–	pEC50 [1]: 5.11; CC50 at 1.5 h [3]: 49.2 µM
Fc1ccccc1-c1nc2ccn(Cc3ccc(-c4ccc(C(F)(F)F)cc4C(F)(F)F)nn3)cc-2n1 [TEGOBUVIR]	–	–	–	pEC50 [1]: 9.15
CC(C)CCNn1c(=O)c(C2=NS(=O)(=O)c3ccccc3N2)c(O)c2ccccc21	–	6.87	6.20	–
CCCn1cc(C2=NS(=O)(=O)c3cc(Br)cnc3N2)c2ccccc21	inactive	–	–	pEC50 [1]: 5.53; CC50 at 1.5 h [3]: 16.6 µM
O=c1c(C2=NS(=O)(=O)c3ccccc3N2)c(O)c2ccccc2n1NCc1nccs1	–	6.17	4.45	–
O=c1c(C2=NS(=O)(=O)c3ccccc3N2)c(O)c2ccccc2n1NC1CCC1	–	6.97	6.56	–
CCC(CC)Nn1c(=O)c(C2=NS(=O)(=O)c3ccccc3N2)c(O)c2ccccc21	–	6.92	5.61	–
CCCn1cc(C2=NS(=O)(=O)c3cc(Br)ccc3N2)c2ccccc21	inactive	–	–	–
O=c1c(C2=NS(=O)(=O)c3ccccc3N2)c(O)c2ccccc2n1NCC1CCCCC1	–	6.82	5.60	–
O=c1c(C2=NS(=O)(=O)c3ccccc3N2)c(O)c2ccccc2n1NC1=CCOC=C1	–	6.36	5.33	–

More lines, main results first:

inhibition [2]	pIC50 [4]	pIC50 [5]	SMILES	other results
inactive	–	–	CCCn1cc(C2=NS(=O)(=O)c3ccccc3N2)c2ccccc21	pEC50 [1]: 5.38; CC50 at 1.5 h [3]: > 50 µM
–	6.89	5.29	O=c1c(C2=NS(=O)(=O)c3ccccc3N2)c(O)c2ccccc2n1NCc1ccccc1	–
inactive	–	–	O=S1(=O)N=C(c2cn(Cc3ccccc3)c3ccc(Br)cc23)Nc2ccccc21	–
–	6.33	5.17	O=c1c(C2=NS(=O)(=O)c3ccccc3N2)c(O)c2ccccc2n1NCc1ccccc1Br	–
inactive	–	–	O=S1(=O)N=C(c2cn(Cc3ccccc3)c3ccccc23)Nc2ncc(Br)cc21	pEC50 [1]: 4.69; CC50 at 1.5 h [3]: > 50 µM
inactive	–	–	CCCCn1cc(C2=NS(=O)(=O)c3ccccc3N2)c2ccccc21	pEC50 [1]: 5.10; CC50 at 1.5 h [3]: > 50 µM
–	6.67	5.09	Cc1cccc(CNn2c(=O)c(C3=NS(=O)(=O)c4ccccc4N3)c(O)c3ccccc32)c1	–
–	7.12	5.98	O=c1c(C2=NS(=O)(=O)c3ccccc3N2)c(O)c2ccccc2n1NCc1cccc(Br)c1	–
–	6.52	5.49	O=c1c(C2=NS(=O)(=O)c3ccccc3N2)c(O)c2ccccc2n1NCc1ccco1	–
inactive	–	–	O=S1(=O)N=C(c2cn(Cc3ccccc3)c3ccccc23)Nc2ccccc21	pEC50 [1]: 5.73; CC50 at 1.5 h [3]: > 50 µM
–	6.88	5.81	O=c1c(C2=NS(=O)(=O)c3ccccc3N2)c(O)c2ccccc2n1NCc1ccoc1	–
–	5.33	4.98	O=c1c(C2=NS(=O)(=O)c3ccccc3N2)c(O)c2ccccc2n1NCc1ccc(Br)cc1	–
inactive	–	–	Cc1c(C2=NS(=O)(=O)c3ccccc3N2)c2ccccc2n1Cc1ccccc1	–
–	5.83	4.78	CC(Nn1c(=O)c(C2=NS(=O)(=O)c3ccccc3N2)c(O)c2ccccc21)c1ccccc1 (centres undefined)	–
inactive	–	–	C=CCn1cc(C2=NS(=O)(=O)c3ccccc3N2)c2ccccc21	CC50 at 1.5 h [3]: > 50 µM
–	6.90	5.63	O=c1c(C2=NS(=O)(=O)c3ccccc3N2)c(O)c2ccccc2n1NCc1cccs1	–
–	6.32	5.21	Cc1ccccc1CNn1c(=O)c(C2=NS(=O)(=O)c3ccccc3N2)c(O)c2ccccc21	–
60%	–	–	CS(=O)(=O)Nc1ccc2c(c1)S(=O)(=O)N=C(c1cn(Cc3ccccc3)c3ccccc13)N2	–
